This is an account of results in the NIST ThermoML archive (doi:10.1016/j.jct.2018.12.016).

Numbers after ± are expanded uncertainties.

The conditions of the data set: 298.15 K, Liquid; for mass density: 101.33 kPa, Pycnometric method; for vapor or sublimation pressure: Manometric method.

In the case of `CC#N` [acetonitrile], the mass density turned out to be 776 ± 2 kg/m3 and the “vapor or sublimation pressure” value was 11.81 ± 0.16 kPa. Take `CCCCOC(=O)c1ccccc1C(=O)OCCCC` [dibutyl phthalate]: the mass density was found to be 1042 ± 2 kg/m3.

For `COC(=O)OC` [dimethyl carbonate], the mass density came to 1063 ± 2 kg/m3 and the “vapor or sublimation pressure” value is 7.256 ± 0.12 kPa. `C[S+](C)[O-]` [dimethyl sulfoxide]: the mass density was found to be 1096 ± 3 kg/m3 and the “vapor or sublimation pressure” value is listed as 0.08 ± 0.078 kPa. In the case of `[Hg]` [mercury], the mass density is 13530 ± 30 kg/m3.
